Measured values published in patent EP3098220A1, “PROCESS FOR THE PREPARATION OF A NADPH OXIDASE INHIBITOR AND ITS POLYMORPHS AND USES THEREOF” (GenKyoTex SA, priority 2015, dated 2016).
In brackets after ≈: the same amount, converted by molar mass. Entries after “also recorded” stand apart in the source; their conditions may differ. Where two headings read alike, the source gives them in different places.

What was measured:
Format in all cases: physicochemical
[1] = Solubility assessment of the two crystal forms (solubilized free base concentration over time in pH 7.4 buffer, HPLC); details: for solubility: pH 7.4
Procedure: The solubility of the two crystal forms have been characterized as described below: • A suspension is prepared in the buffer. Magnetic stirring is applied at 100 rpm.
The concentration of the free base in solution in buffer solution at pH 7.4 (38g Na2HPO4, 12 H2O + 3,8g NaH2PO4, 2 H2O completed to 1L with de-ionized water) is determined after 30 min, […], 2h, 4h, 6h and 24h at ambient temperature protected from light. For that purpose, the samples are withdrawn and filtered on filter Millex PVDF 0.22µm (diameter=13mm) and diluted in water/acetonitrile 50/50 (v/v) in order to reach a concentration in the range of standard solutions concentrations. Two separated dilutions are performed for each sample and the final result is the mean of these two dilutions results. The concentration of the solubilized fraction is determined by HPLC by a short gradient reverse phase standard method with UV-diode array detection solution.
The following tables display the solubilized freebase concentrations as a function of time at pH 7.4 (Table 10) at 20°C (samples protected from light) for: - Form A : crystalline freebase (sample 2), - Form B : crystalline freebase (sample 1).

[2] = Hygroscopicity assessment by dynamic water vapor sorption/desorption analysis (DVS); details: for sample mass uptake: 25°C; for hygroscopic character: criteria: 2% maximum uptake at 60% relative humidity
Procedure: The dynamic vapor sorption (DVS) analysis with water is performed on a DVS-Intrinsic incubator from SMS Ltd, equipped with DVS-Intrinsic Control Software 1.0. A sample weight of about 8 to 10mg, placed in an aluminum pan holder, is submitted to a full cycle analysis (sorption followed by desorption) in a dm/dt mode according to the conditions described in Table 6 below. Table 6 [table] The sample obtained after crystallization protocol is pre-dried under a stream of dry filtered air until a stable weight is obtained. Next, relative humidity is increased by 5% increments. For each step, the sample mass is allowed to increase until equilibrium is reached (dm/dt criterion), and then a new relative humidity rise occurs. […] After equilibration at this point, desorption begins in a similar stepwise fashion, with sample weight again allowed to stabilize after each incremental humidity decrease. For each segment of the method described above, the recording of the sample mass allows describing of the whole sorption/desorption behavior versus relative humidity. The hygroscopic character of the two crystal forms has been investigated as described above.

[3] = Solubility assessment of the two crystal forms (solubilized free base concentration over time in pH 7.4 buffer, HPLC); details: pH 7.4, 20°C, protected from light
[4] = Solubility assessment in pH 1 HCl/KCl buffer (saturation, 24 hours at 20°C, HPLC); details: pH 1, simulated gastric fluid, thermodynamic from solid
Procedure: The solubility of the HC1 salt and of the free base was compared in a pH1 HC1/KC1 buffer and in a pH 7.4 phosphate buffer. For each medium, the saturation of the medium is obtained by adding an excess of active ingredient to a given volume of test medium. The suspension is stirred over 24 hours at 20°C, protected from light. The supernatant is then isolated by centrifugation, diluted in a solvent mixture allowing its injection into the chromatographic system. The compound concentration in solution for each medium is determined by external standardization and HPLC under the conditions detailed in Table3 below. Solubility was tested over a range from 1 µg/mL up to 1 mg/mL.

SMILES	solubility [1]	solubility at 30 min ([1]; phosphate buffer, 20 °C, pH 7.4, aqueous buffer, thermodynamic from solid, pH 7.4, 20°C, protected from light, 30min, read-out: Solubilized fraction)	solubility at 2 h ([1]; phosphate buffer, 20 °C, pH 7.4, aqueous buffer, thermodynamic from solid, pH 7.4, 20°C, protected from light, 2h, read-out: Solubilized fraction)	solubility at 4 h ([1]; phosphate buffer, 20 °C, pH 7.4, aqueous buffer, thermodynamic from solid, pH 7.4, 20°C, protected from light, 4h, read-out: Solubilized fraction)	solubility at 6 h ([1]; phosphate buffer, 20 °C, pH 7.4, aqueous buffer, thermodynamic from solid, pH 7.4, 20°C, protected from light, 6h, read-out: Solubilized fraction)	solubility at 24 h ([1]; phosphate buffer, 20 °C, pH 7.4, aqueous buffer, thermodynamic from solid, pH 7.4, 20°C, protected from light, 24 h, read-out: Solubilized fraction)	sample mass uptake ([2]; 60% relative humidity)	sample mass uptake ([2]; 95% relative humidity)	solubility at 1 h ([3]; phosphate buffer, 20 °C, pH 7.4, aqueous buffer, thermodynamic from solid, read-out: Solubilized fraction)	Solubilized fraction ([1]; pH 7.4, 20°C, protected from light, 30min)	Solubilized fraction ([1]; pH 7.4, 20°C, protected from light, 2h)	Solubilized fraction ([1]; pH 7.4, 20°C, protected from light, 4h)	Solubilized fraction ([1]; pH 7.4, 20°C, protected from light, 6h)	Solubilized fraction ([1]; pH 7.4, 20°C, protected from light, 24 h)	solubility ([1]; phosphate buffer, 20 °C, pH 7.4, aqueous buffer, thermodynamic from solid, read-out: Solubility)	hygroscopic character [2]	mass loss upon drying ([2]; drying at 0%RH)	solubility at 24 h [4]	Solubilized fraction ([3]; 1h)
CN(C)c1cccc(-c2c3c(=O)n(-c4ccccc4Cl)[nH]c3cc(=O)n2C)c1 [Form A, 2-(2-chlorophenyl)-4-[3-(dimethylamino)phenyl]-5-methyl-1H-pyrazolo[4,3-c] pyridine-3,6(2H,5H)-dione]	500 µg/mL (≈ 1270 µM)	330 µg/mL (≈ 836 µM)	370 µg/mL (≈ 937 µM)	390 µg/mL (≈ 988 µM)	400 µg/mL (≈ 1010 µM)	510 µg/mL (≈ 1290 µM)	0.2%	0.3%	350 µg/mL (≈ 886 µM)										
CN(C)c1cccc(-c2c3c(=O)n(-c4ccccc4Cl)[nH]c3cc(=O)n2C)c1 [Form B, 2-(2-chlorophenyl)-4-[3-(dimethylamino)phenyl]-5-methyl-1H-pyrazolo[4,3-c] pyridine-3,6(2H,5H)-dione]										0.23 mg/mL	0.26 mg/mL	0.27 mg/mL	0.28 mg/mL	0.26 mg/mL	300 µg/mL (≈ 760 µM)	non-hygroscopic; also recorded: not hygroscopic	0.2%	> 30000 µg/mL	0.25 mg/mL
CN(C)c1cccc(-c2c3c(=O)n(-c4ccccc4Cl)[nH]c3cc(=O)n2C)c1 [free base, 2-(2-chlorophenyl)-4-[3-(dimethylamino)phenyl]-5-methyl-1H-pyrazolo[4,3-c] pyridine-3,6(2H,5H)-dione]							0.2%	0.3%								non-hygroscopic			
